In ChEMBL document CHEMBL3886351, “TrkA kinase inhibitors, compositions and methods thereof” (2015):

Target: High affinity nerve growth factor receptor (Homo sapiens, UniProt P04629)
Assay: Kinase Activity Assay: TrkA kinase activity was measured as the ability of the enzyme to phosphorylate a fluorescently labeled peptide substrate. Buffer salts, reagents, and fluorescently labeled peptides were purchased from Carna Biosciences and were of the highest quality available (QSS Assist TRKA_MSA Kit). Enzyme was purchased from Cell Signaling, and was used without further purification. 384-well round bottom assay plates were prepared by the addition of 200 nl of a DMSO solution of compound at various concentrations to final inhibitor concentrations ranging from 100 μM to […]. Next, assay buffer (10 μl) containing substrate and ATP were added, followed by addition of 10 μl of enzyme in assay buffer. Final assays concentrations were: [E]=0.37 nM, [S]=1 μM, [ATP]=2 mM. The reactions were incubated at room temperature for 3 hours resulting in approximately 15% substrate phosphorylation and were terminated by the addition of 5 μl of stop buffer.

High affinity nerve growth factor receptor, sequence (P04629 whole entry): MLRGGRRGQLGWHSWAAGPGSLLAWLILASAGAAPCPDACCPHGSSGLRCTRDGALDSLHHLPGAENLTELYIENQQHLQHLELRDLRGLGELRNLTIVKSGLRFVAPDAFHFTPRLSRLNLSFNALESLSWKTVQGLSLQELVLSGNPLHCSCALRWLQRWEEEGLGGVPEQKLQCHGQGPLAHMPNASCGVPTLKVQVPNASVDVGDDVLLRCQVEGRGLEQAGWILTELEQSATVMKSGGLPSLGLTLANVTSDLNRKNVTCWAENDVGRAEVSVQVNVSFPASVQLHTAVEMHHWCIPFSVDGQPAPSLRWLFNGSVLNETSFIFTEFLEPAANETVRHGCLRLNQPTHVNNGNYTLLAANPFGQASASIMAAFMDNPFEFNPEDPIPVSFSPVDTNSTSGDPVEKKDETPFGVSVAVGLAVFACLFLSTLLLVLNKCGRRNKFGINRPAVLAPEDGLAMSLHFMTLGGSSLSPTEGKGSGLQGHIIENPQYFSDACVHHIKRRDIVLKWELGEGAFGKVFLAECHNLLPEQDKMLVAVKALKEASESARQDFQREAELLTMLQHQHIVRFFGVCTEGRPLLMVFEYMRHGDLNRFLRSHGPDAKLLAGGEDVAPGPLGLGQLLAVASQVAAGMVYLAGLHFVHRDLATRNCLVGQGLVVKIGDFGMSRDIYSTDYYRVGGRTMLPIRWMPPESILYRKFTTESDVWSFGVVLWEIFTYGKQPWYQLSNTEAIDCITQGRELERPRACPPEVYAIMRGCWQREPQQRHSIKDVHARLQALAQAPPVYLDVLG

Row | Compound | EC50
1 | CC(C)N(Cc1n[nH]c2ncccc12)C(=O)Nc1ccc(SC(F)(F)F)cc1 | 24.9 nM
2 | CC1(C)CCN(c2ccc(SC(F)(F)F)cc2)C(=O)N1Cc1c[nH]c2ncccc12 | 19.7 nM
3 | CC(C)N(Cc1cc(-c2nccs2)ccn1)C(=O)Nc1ccc(OC(F)(F)F)cc1 | 8080 nM
4 | C#CC(C)N(Cc1cccc(-c2nccs2)c1)C(=O)Nc1ccc(OC(F)(F)F)cc1 (configuration not stated) | 48 nM
5 | CC(C)N(Cc1cccc(-c2nccs2)c1)C(=O)Nc1cnc(C(C)(C)C)nc1 | 102 nM
6 | CC(C)N(Cc1n[nH]c2ncccc12)C(=O)Nc1ccc(OC(F)(F)F)cc1 | 141 nM
7 | CC(C)N(Cc1cccc(-c2nccs2)c1)C(=O)Nc1ccc(OC(F)(F)F)cc1 | 119 nM
